Data reported in US8518945B2, “Pyrrolopyrazine kinase inhibitors” (Hoffmann-La Roche Inc., priority 2010, dated 2013).

biological target: T1, h-jak3(810-1124) (JAK3: Recombinant human kinase domain) (Homo sapiens, UniProt P52333); assay: Determination of IC50 of Janus Kinase (JAK) inhibition: JAK3 radioactive end-point 33P-ATP kinase assay; type: biochemical; conditions: no additive; ATP 1.5 uM, peptide 50 uM, 20 minutes, room temperature; read-out: Ic50 h-jak3(810-1124)-sf9-c: no additive
T1 construct: jak3(810- 1124)-sf9-c; made in house; host or cells: Sf9
T1 sequence (P52333 810-1124): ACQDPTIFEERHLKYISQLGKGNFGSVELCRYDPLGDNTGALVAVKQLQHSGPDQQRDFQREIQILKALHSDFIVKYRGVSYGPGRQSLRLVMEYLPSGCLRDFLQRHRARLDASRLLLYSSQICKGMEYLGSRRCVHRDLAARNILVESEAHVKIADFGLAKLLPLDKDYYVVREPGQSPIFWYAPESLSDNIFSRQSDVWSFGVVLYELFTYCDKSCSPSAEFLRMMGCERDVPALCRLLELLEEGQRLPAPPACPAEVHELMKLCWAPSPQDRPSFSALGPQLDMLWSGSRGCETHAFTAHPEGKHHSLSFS

`CC1(O)CCN(C(=O)[C@H](NC(=O)c2c[nH]c3ncc(C4CC4)nc23)C(C)(C)C)CC1` [Example I-73, 2-Cyclopropyl-5H-pyrrolo[2,3-b]pyrazine-7-carboxylic acid [(R)-1-(4-hydroxy-4-methyl-piperidine-1-carbonyl)-2,2-dimethyl-propyl]-amide] and `CC(C)Oc1cnc2[nH]cc(C(=O)N[C@@H](C(=O)N3CCC(C#N)CC3)C(C)(C)C)c2n1` [Example I-94, 2-Isopropoxy-5H-pyrrolo[2,3-b]pyrazine-7-carboxylic acid [(R)-1-(4-cyano-piperidine-1-carbonyl)-2,2-dimethyl-propyl]-amide] are within 1.5-fold of each other in IC50: 3.34 nM for the first, 3.66 nM for the second.

Going from `CCn1cc(-c2cnc3[nH]cc(C(=O)N[C@H](C(=O)N4CCC(C#N)CC4)C4(C(F)(F)F)CC4)c3n2)cn1` [Example I-74, 2-(1-Ethyl-1H-pyrazol-4-yl)-5H-pyrrolo[2,3-b]pyrazine-7-carboxylic acid [(S)-2-(4-cyano-piperidin-1-yl)-2-oxo-1-(1-trifluoromethyl-cyclopropyl)-ethyl]-amide] to `CC(C)(C)[C@@H](NC(=O)c1c[nH]c2ncc(-c3cnn(CC(F)(F)F)c3)nc12)C(=O)N1CCC(C#N)CC1` [Example I-79, 2-[1-(2,2,2-Trifluoro-ethyl)-1H-pyrazol-4-yl]-5H-pyrrolo[2,3-b]pyrazine-7-carboxylic acid [(R)-1-(4-cyano-piperidine-1-carbonyl)-2,2-dimethyl-propyl]-amide], the IC50 falls from 1.13 nM to no more than 0.32 nM. The second is the more potent here.

Going from `Cn1cc(-c2cnc3[nH]cc(C(=O)N[C@@H](C(=O)N4CC(C#N)C4)C4CCCCC4)c3n2)cn1` [Example I-76, 2-(1-Methyl-1H-pyrazol-4-yl)-5H-pyrrolo[2,3-b]pyrazine-7-carboxylic acid [(R)-2-(3-cyano-azetidin-1-yl)-1-cyclohexyl-2-oxo-ethyl]-amide] to `Cn1cc(-c2cnc3[nH]cc(C(=O)N[C@@H](C(=O)N4CC[C@H](C#N)C4)C4CC4)c3n2)cn1` [Example I-81, 2-(1-Methyl-1H-pyrazol-4-yl)-5H-pyrrolo[2,3-b]pyrazine-7-carboxylic acid [(R)-2-((S)-3-cyano-pyrrolidin-1-yl)-1-cyclopropyl-2-oxo-ethyl]-amide], the IC50 falls from 11.8 nM to no more than 0.32 nM. The second is the more potent here.

`Cn1cnc(-c2cnc3[nH]cc(C(=O)N[C@@H](C(=O)N4CCC(C#N)CC4)C(C)(C)C)c3n2)c1` [Example I-77, 2-(1-Methyl-1H-imidazol-4-yl)-5H-pyrrolo[2,3-b]pyrazine-7-carboxylic acid [(R)-1-(4-cyano-piperidine-1-carbonyl)-2,2-dimethyl-propyl]-amide] and `CC(C)(C)[C@@H](NC(=O)c1c[nH]c2ncc(-c3cnn(C4CC4)c3)nc12)C(=O)N1CCC(C#N)CC1` [Example I-78, 2-(1-Cyclopropyl-1H-pyrazol-4-yl)-5H-pyrrolo[2,3-b]pyrazine-7-carboxylic acid [(R)-1-(4-cyano-piperidine-1-carbonyl)-2,2-dimethyl-propyl]-amide] cannot be ordered by IC50: no more than 0.32 nM for the first, no more than 0.32 nM for the second.

Compared with `Cn1cc(-c2cnc3[nH]cc(C(=O)N[C@@H](C(=O)N4CC[C@@H](C#N)C4)C4CC4)c3n2)cn1` [Example I-82, 2-(1-Methyl-1H-pyrazol-4-yl)-5H-pyrrolo[2,3-b]pyrazine-7-carboxylic acid [(R)-2-((R)-3-cyano-pyrrolidin-1-yl)-1-cyclopropyl-2-oxo-ethyl]-amide], `Cn1cc(-c2cnc3[nH]cc(C(=O)N[C@@H](C(=O)N4CC5(COC5)C4)C4CC4)c3n2)cn1` [Example I-85, 2-(1-Methyl-1H-pyrazol-4-yl)-5H-pyrrolo[2,3-b]pyrazine-7-carboxylic acid [(R)-1-cyclopropyl-2-(2-oxa-6-aza-spiro[3.3]hept-6-yl)-2-oxo-ethyl]-amide] is higher in IC50: no more than 0.32 nM for the first, 0.85 nM for the second. The first is the more potent here.

First: O=C(N[C@@H](C(=O)N1CC2(COC2)C1)C1CC1)c1c[nH]c2ncc(C3CC3)nc12 [Example I-84, 2-Cyclopropyl-5H-pyrrolo[2,3-b]pyrazine-7-carboxylic acid [(R)-1-cyclopropyl-2-(2-oxa-6-aza-spiro[3.3]hept-6-yl)-2-oxo-ethyl]-amide]
Second: O=C(N[C@@H](C(=O)N1CCS(=O)(=O)CC1)C1CC1)c1c[nH]c2ncc(C3CC3)nc12 [Example I-88, 2-Cyclopropyl-5H-pyrrolo[2,3-b]pyrazine-7-carboxylic acid [(R)-1-cyclopropyl-2-(1,1-dioxo-1λ^6-thiomorpholin-4-yl)-2-oxo-ethyl]-amide]
The IC50 of the first is 1.6-fold lower: 0.75 nM for the first, 1.23 nM for the second.

`O=C(N[C@@H](C(=O)N1C[C@@H]2[C@@H](CO)[C@@H]2C1)C1CC1)c1c[nH]c2ncc(C3CC3)nc12` [Example I-86, 2-Cyclopropyl-5H-pyrrolo[2,3-b]pyrazine-7-carboxylic acid [(R)-1-cyclopropyl-2-((1S,5R,6R)-6-hydroxymethyl-3-aza-bicyclo[3.1.0]hex-3-yl)-2-oxo-ethyl]-amide] and `Cn1cc(-c2cnc3[nH]cc(C(=O)N[C@@H](C(=O)N4C[C@@H]5[C@@H](CO)[C@@H]5C4)C4CC4)c3n2)cn1` [Example I-87, 2-(1-Methyl-1H-pyrazol-4-yl)-5H-pyrrolo[2,3-b]pyrazine-7-carboxylic acid [(R)-1-cyclopropyl-2-((1S,5R,6R)-6-hydroxymethyl-3-aza-bicyclo[3.1.0]hex-3-yl)-2-oxo-ethyl]-amide] are within 1.5-fold of each other in IC50: 4.02 nM for the first, 4.49 nM for the second.

`Cn1cc(-c2cnc3[nH]cc(C(=O)N[C@@H](C(=O)N4CCS(=O)(=O)CC4)C4CC4)c3n2)cn1` [Example I-89, 2-(1-Methyl-1H-pyrazol-4-yl)-5H-pyrrolo[2,3-b]pyrazine-7-carboxylic acid [(R)-1-cyclopropyl-2-(1,1-dioxo-1λ^6-thiomorpholin-4-yl)-2-oxo-ethyl]-amide] and `N#CC1CN(C(=O)[C@H](NC(=O)c2c[nH]c3ncc(-c4cc5nccc(N6CCCC6)c5s4)nc23)C2CC2)C1` [Example I-97, 2-(7-Pyrrolidin-1-yl-thieno[3,2-b]pyridin-2-yl)-5H-pyrrolo[2,3-b]pyrazine-7-carboxylic acid [(R)-2-(3-cyano-azetidin-1-yl)-1-cyclopropyl-2-oxo-ethyl]-amide] are within 1.5-fold of each other in IC50: 4.23 nM for the first, 3.91 nM for the second.

`CC(C)(C)[C@@H](NC(=O)c1c[nH]c2ncc(OC3CCCCC3)nc12)C(=O)N1CCC(C#N)CC1` [Example I-90, 2-Cyclohexyloxy-5H-pyrrolo[2,3-b]pyrazine-7-carboxylic acid [(R)-1-(4-cyano-piperidine-1-carbonyl)-2,2-dimethyl-propyl]-amide] and `CC(C)(C)[C@@H](NC(=O)c1c[nH]c2ncc(OC3CCCC3)nc12)C(=O)N1CCC(C#N)CC1` [Example I-92, 2-Cyclopentyloxy-5H-pyrrolo[2,3-b]pyrazine-7-carboxylic acid [(R)-1-(4-cyano-piperidine-1-carbonyl)-2,2-dimethyl-propyl]-amide] are within 1.5-fold of each other in IC50: 9.73 nM for the first, 10.9 nM for the second.

`CC(C)(C)[C@@H](NC(=O)c1c[nH]c2ncc(OCCC(F)(F)F)nc12)C(=O)N1CCC(C#N)CC1` [Example I-91, 2-(3,3,3-Trifluoro-propoxy)-5H-pyrrolo[2,3-b]pyrazine-7-carboxylic acid [(R)-1-(4-cyano-piperidine-1-carbonyl)-2,2-dimethyl-propyl]-amide] and `CC(C)(C)[C@@H](NC(=O)c1c[nH]c2ncc(OCC(F)(F)F)nc12)C(=O)N1CCC(C#N)CC1` [Example I-93, 2-(2,2,2-Trifluoro-ethoxy)-5H-pyrrolo[2,3-b]pyrazine-7-carboxylic acid [(R)-1-(4-cyano-piperidine-1-carbonyl)-2,2-dimethyl-propyl]-amide] are within 1.5-fold of each other in IC50: 17 nM for the first, 16.4 nM for the second.

First: N#CC1CN(C(=O)[C@H](NC(=O)c2c[nH]c3ncc(N4Cc5c(Cl)cccc5C4=O)nc23)C2CC2)C1 [Example I-95, 2-(4-Chloro-1-oxo-1,3-dihydro-isoindol-2-yl)-5H-pyrrolo[2,3-b]pyrazine-7-carboxylic acid [(R)-2-(3-cyano-azetidin-1-yl)-1-cyclopropyl-2-oxo-ethyl]-amide]
Second: N#CC1CN(C(=O)[C@H](NC(=O)c2c[nH]c3ncc(-c4cc5nccc(Cl)c5s4)nc23)C2CC2)C1 [Example I-96, 2-(7-Chloro-thieno[3,2-b]pyridin-2-yl)-5H-pyrrolo[2,3-b]pyrazine-7-carboxylic acid [(R)-2-(3-cyano-azetidin-1-yl)-1-cyclopropyl-2-oxo-ethyl]-amide]
The IC50 of the first is 4-fold higher: 2.73 nM for the first, 0.69 nM for the second.

First: N#CC1CN(C(=O)[C@H](NC(=O)c2c[nH]c3ncc(-c4cc5nccc(OCC(F)(F)F)c5s4)nc23)C2CC2)C1 [Example I-98, 2-[7-(2,2,2-Trifluoro-ethoxy)-thieno[3,2-b]pyridin-2-yl]-5H-pyrrolo[2,3-b]pyrazine-7-carboxylic acid [(R)-2-(3-cyano-azetidin-1-yl)-1-cyclopropyl-2-oxo-ethyl]-amide]
Second: C[C@@H](NC(=O)c1c[nH]c2ncc(-c3cc4nccc(OCC(F)(F)F)c4s3)nc12)C(=O)N1CC(C#N)C1 [Example I-102, 2-[7-(2,2,2-Trifluoro-ethoxy)-thieno[3,2-b]pyridin-2-yl]-5H-pyrrolo[2,3-b]pyrazine-7-carboxylic acid [(R)-2-(3-cyano-azetidin-1-yl)-1-methyl-2-oxo-ethyl]-amide]
The IC50 of the first is 20-fold lower: 2.16 nM for the first, 43.1 nM for the second. The first is the more potent here.

Compared with `COc1ccnc2cc(-c3cnc4[nH]cc(C(=O)N[C@@H](C(=O)N5CC(C#N)C5)C5CC5)c4n3)sc12` [Example I-99, 2-(7-Methoxy-thieno[3,2-b]pyridin-2-yl)-5H-pyrrolo[2,3-b]pyrazine-7-carboxylic acid [(R)-2-(3-cyano-azetidin-1-yl)-1-cyclopropyl-2-oxo-ethyl]-amide], `C[C@@H](NC(=O)c1c[nH]c2ncc(-c3cc4nccc(Cl)c4s3)nc12)C(=O)N1CC(C#N)C1` [Example I-100, 2-(7-Chloro-thieno[3,2-b]pyridin-2-yl)-5H-pyrrolo[2,3-b]pyrazine-7-carboxylic acid [(R)-2-(3-cyano-azetidin-1-yl)-1-methyl-2-oxo-ethyl]-amide] is 21-fold higher in IC50: 0.78 nM for the first, 16 nM for the second.

Compound `C[C@@H](NC(=O)c1c[nH]c2ncc(-c3cc4nccc(N5CCCC5)c4s3)nc12)C(=O)N1CC(C#N)C1` [Example I-101, 2-(7-Pyrrolidin-1-yl-thieno[3,2-b]pyridin-2-yl)-5H-pyrrolo[2,3-b]pyrazine-7-carboxylic acid [(R)-2-(3-cyano-azetidin-1-yl)-1-methyl-2-oxo-ethyl]-amide] has an IC50 of 37 nM.
